# According to patent US20170319740A1, “Bioactive Wound Dressing and Teeth Coating Based on Morphogenetically Active Amorphous Calcium Polyphosphate” (NanotecMARIN GmbH, priority 2014, published 2017):
# Experiments:
# MC3T3-E1 cells [1] = experiment: XTT cell viability / cell proliferation assay; format: cell-based, mouse
# Procedure: (§1) The mouse calvaria cells MC3T3-E1 cells (ATCC-CRL-2593; #99072810; Sigma) are cultivated in a-MEM (Gibco—Invitrogen, Darmstadt; Germany) containing 20% fetal calf serum (FCS; Gibco). In addition, the medium is supplemented with 2 mM L-glutamine, 1 mM Na-pyruvate and 50 μg/ml of gentamycin. […] After reaching 80% confluency, the cells are detached using trypsin/EDTA and then subcultured at a density of 5·10^3 cells/ml. The cells are seeded at a density of 5·10^3 cells/well. Medium/serum change is every 3 d.
# (§2) Retinol is dissolved in ethanol (1 mg/ml) and then diluted in DMSO (dimethyl sulfoxide). Incubation is performed for 3 d.
# Cell proliferation/cell viability can be determined by the colorimetric XTT method ([Na-3′[1-(phenylamino-carbonyl)-3,4-tetrazolium]-bis(4-methoxy-6-nitro) benzene sulfonic acid] using, for example, the “Cell Proliferation Kit II” (Roche). The absorbance is determined at […] and subtracted from the background values ([…]). In the experiments described in Examples, the viable cells have been determined after 72 h.
# leptin = experiment: RT-qPCR steady-state gene expression in MC3T3-E1 cells: leptin; format: cell-based, Mus musculus; details: 3 d, GAPDH reference
# Procedure: (§3) As indicated, the following polyP preparations are added to the cells; […], et al. […] Retinol is dissolved in ethanol (1 mg/ml) and then diluted in DMSO (dimethyl sulfoxide). Incubation is performed for 3 d. In the indicated experiments, circular fiber mat samples (diameter of 15 mm) are inserted into each 24-well of the plates and seeded with MC3T3-E1 cells at a density of 5·10^3 cells/well. Then the assays are incubated for 3 d and subjected to microscopic as well as polymerase chain reaction analyses. The gene expression levels can be determined by applying the technique of reverse transcription-quantitative real-time polymerase chain reaction (RT-qPCR). […] Then the cells are harvested, their RNA is isolated and subjected to RT-qPCR. In the experiments described under Examples, the following primer pairs, matching with the respective mouse genes, are used: Fatty acid binding protein 4 (Mus musculus; accession number […]299] (SEQ ID NO: 1) and Rev: […]392] (SEQ ID NO: 2); product size 135 bp; leptin (M. musculus; […]2911] (SEQ ID NO: 3) and Rev: […]3019] (SEQ ID NO: 4); size 153 bp; and leptin receptor, transcript variant 2 (M. musculus; […]2592] (SEQ ID NO: 5) and Rev: […]2686] (SEQ ID NO: 6); size 139 bp. The GAPDH [glyceraldehyde 3-phosphate dehydrogenase (Mus GAPDH; NM_008084) is used as reference gene […]220] (SEQ ID NO: 7) and Rev: [NT]338 to nt316; size 139 bp] (SEQ ID NO: 8).
# MC3T3-E1 cells [2] = experiment: Nile Blue A staining of cell monolayers; format: cell-based, mouse; details: 72 h, controls stained in blue
# Procedure: as §1, §2
# The MC3T3-E1 cells are stained with Nile Blue A (Basic Blue 12, Nile blue sulfate; Sigma N0766) as described (Nakanishi T, Kato S. Impact of diabetes mellitus on myocardial lipid deposition: an autopsy study. Pathol Res Pract 2014; 210: 1018-1025). This staining reagent highlights in histological samples neutral lipids (triglycerides, cholesteryl esters, steroids) in pink, while acids (fatty acids, chromolipids, phospholipids) are stained in blue.
# leptin receptor = experiment: RT-qPCR steady-state gene expression in MC3T3-E1 cells: leptin receptor; format: cell-based, Mus musculus; details: 3 d, GAPDH reference
# Procedure: as §3
# [3] = In vitro incubation of teeth, polyP coating / dentinal tubule resealing (light microscopy, SEM); set-up: species or system human; details: 10 mg/mL; 2 d incubation
# Procedure: In order to determine the efficacy of the aCa-polyP-MP to reseal the dentin layer and to check for the potency of the microparticles to occlude the dentinal tubules human teeth are used. Prior to use the teeth are mechanically cleaned from soft tissue, treated for 5 h in 3% Na-hypochlorite to remove tissue remains and then stored at 4° C. in a 100% relative humidity chamber.
# Teeth specimens are submersed in saline (0.90% [w/v] NaCl) which contained, as mentioned in the text, either 10 mg/mL of aCa-polyP-MP or Na-polyP, stoichiometrically complexed with Ca^2+ (molar ratio of 2:1/phosphate monomer:Ca^2 [Müller W E G, et al. (2011) Inorganic polymeric phosphate/polyphosphate as an inducer of alkaline phosphatase and a modulator of intracellular Ca^2+ level in osteoblasts (SaOS-2 cells) in vitro. Acta Biomater 7:2661-2671]). Incubation is performed at 25° C. Then the samples are sliced by cutting 1-2 mm thick discs inwards to the pulp as described (Wang X H, et al. (2014) Enzyme-based biosilica and biocalcite: biomaterials for the future in regenerative medicine. Trends Biotechnol 32:441-447); where indicated, the dentin or enamel regions, as well as the cement layer, are included in the measurements. […]
# [4] = system: fatty acid binding protein 4 (FABP4); experiment: RT-qPCR steady-state gene expression in MC3T3-E1 cells: FABP4; format: cell-based, Mus musculus; details: 3 d, GAPDH reference
# Procedure: as §3
# ALP gene = experiment: qRT-PCR of ALP expression in hMSC differentiating towards odontoblasts; format: cell-based, human; details: 30 μg/mL, time not stated (1-7 d series), without polyP approximately 0.02
# Procedure: The human multipotent stromal cells (hMSC) differentiate into odontoblasts in the presence of conditioned medium from developing tooth germ cells; the conditioned medium is prepared as described (Huo N, et al. (2010) Differentiation of dermal multipotent cells into odontogenic lineage induced by embryonic and neonatal tooth germ cell-conditioned medium. Stem Cells Dev 19:93-104). The description of the cultivation procedure for the hMSCs has been published (Wang X H, et al. (2014) The marine sponge-derived inorganic polymers, biosilica and polyphosphate, as morphogenetically active matrices/scaffolds for differentiation of human multipotent stromal cells: Potential application in 3D printing and distraction osteogenesis. Marine Drugs 12:1131-1147). The human cells can be obtained, after approval from the responsible ethics committee, from bone marrow aspirations after informed consent of the donors. Incubation was performed in a humidified incubator at 37° C. and 5% CO2. The sixth passage is used for the studies. The cells are incubated in α-MEM (Biochrom), supplemented with 20% fetal calf serum (FCS; Gibco Invitrogen) as well as with 100 units/mL penicillin and […] streptomycin. In addition, 5% of conditioned medium is added to the assays. […]
Compound,"number of cells (XTT) (MC3T3-E1 cells [1]; 72 h incubation, below a concentration of 3 μg/ml)","leptin steady-state expression versus untreated control (leptin; 3 μg/ml, control set to 1)",Nile Blue A staining colour of cells (MC3T3-E1 cells [2]; 3 μg/ml),"leptin receptor steady-state expression versus untreated control (leptin receptor; 3 μg/ml, control set to 1)","additional (polyP) layer on top of the cement, light microscopy [3]","surface texture / roughness of treated teeth, light microscopy [3]","FABP4 steady-state expression versus untreated control ([4]; 3 μg/ml, control set to 1)","ALP expression level, ratio to GAPDH (ALP gene)","cell growth (XTT) (MC3T3-E1 cells [1]; retinol 3 μM as single component, 72 h)",leptin steady-state expression versus untreated control (leptin; 3 μM retinol),Nile Blue A staining colour of cells (MC3T3-E1 cells [2]; 3 μM retinol),leptin receptor steady-state expression versus untreated control (leptin receptor; 3 μM retinol),FABP4 steady-state expression versus untreated control ([4]; 3 μM retinol)
Na-polyphosphate,no effect on the number of cells,did not change significantly,highlight in light/bright pink,did not change significantly,no additional layer was observed,coarse texture,did not change significantly,0.53±0.01,,,,,
"CC1=C(/C=C/C(C)=C/C=C/C(C)=C/CO)C(C)(C)CCC1 [retinol, all-trans retinol]",,,,,,,,,does not affect cell growth significantly,non-significant increase,highlight in light/bright pink,non-significant increase,non-significant increase
